According to ChEMBL document CHEMBL5715954, “Silencing c-Myc translation as a therapeutic strategy through targeting PI3Kδ and CK1ε in hematological malignancies” (Blood, 2017):

Columns and labels:
Set-up in all cases: scale not given: the % may be the effect or the level left
[1] = target: T1, Discoidin domain-containing receptor 2 (Homo sapiens) (UniProt Q16832); assay: Inhibition of human DDR2 assessed as enzyme activity at 1 uM using KKSRGDYMTMQIG as substrate preincubated for 20 mins followed by [gamma-33P]-ATP addition and measured after 120 mins by radiometric Hot-SpotSM Kinase assay relative to control
T1 sequence (whole entry): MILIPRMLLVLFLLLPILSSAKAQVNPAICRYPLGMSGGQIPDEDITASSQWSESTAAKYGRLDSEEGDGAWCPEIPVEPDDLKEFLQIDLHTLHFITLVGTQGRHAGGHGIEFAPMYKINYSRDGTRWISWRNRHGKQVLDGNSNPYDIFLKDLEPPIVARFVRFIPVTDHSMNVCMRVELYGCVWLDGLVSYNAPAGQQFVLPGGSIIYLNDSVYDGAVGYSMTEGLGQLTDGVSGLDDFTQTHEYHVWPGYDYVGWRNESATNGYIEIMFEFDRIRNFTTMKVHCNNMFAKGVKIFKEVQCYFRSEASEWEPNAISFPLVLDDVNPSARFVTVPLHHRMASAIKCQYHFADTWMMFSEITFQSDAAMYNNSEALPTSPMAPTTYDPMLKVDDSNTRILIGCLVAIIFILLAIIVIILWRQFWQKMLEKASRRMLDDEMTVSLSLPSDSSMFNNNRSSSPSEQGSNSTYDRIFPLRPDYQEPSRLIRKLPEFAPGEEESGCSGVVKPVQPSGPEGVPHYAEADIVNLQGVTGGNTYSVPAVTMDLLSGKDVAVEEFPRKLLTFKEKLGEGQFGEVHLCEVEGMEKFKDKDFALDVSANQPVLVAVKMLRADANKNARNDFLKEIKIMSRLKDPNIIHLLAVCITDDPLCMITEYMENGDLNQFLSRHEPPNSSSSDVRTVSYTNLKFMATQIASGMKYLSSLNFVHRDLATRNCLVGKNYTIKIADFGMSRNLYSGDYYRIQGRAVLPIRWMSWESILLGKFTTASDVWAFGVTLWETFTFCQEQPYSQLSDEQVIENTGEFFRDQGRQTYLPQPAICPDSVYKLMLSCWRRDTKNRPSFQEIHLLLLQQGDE

[2] = target: Tyrosine-protein kinase ABL1 (Homo sapiens) (UniProt P00519); assay: Inhibition of human ABL1 assessed as enzyme activity at 1 uM using EAIYAAPFAKKK as substrate preincubated for 20 mins followed by [gamma-33P]-ATP addition and measured after 120 mins by radiometric Hot-SpotSM Kinase assay relative to control
[3] = target: RAF proto-oncogene serine/threonine-protein kinase (Homo sapiens) (UniProt P04049); assay: Inhibition of human RAF1 assessed as enzyme activity at 1 uM using MEK1 (K97R) as substrate preincubated for 20 mins followed by [gamma-33P]-ATP addition and measured after 120 mins by radiometric Hot-SpotSM Kinase assay relative to control
[4] = target: T2, Dual specificity tyrosine-phosphorylation-regulated kinase 2 (Homo sapiens) (UniProt Q92630); assay: Inhibition of human DYRK2 assessed as enzyme activity at 1 uM using RRRFRPASPLRGPPK as substrate preincubated for 20 mins followed by [gamma-33P]-ATP addition and measured after 120 mins by radiometric Hot-SpotSM Kinase assay relative to control
T2 sequence (whole entry): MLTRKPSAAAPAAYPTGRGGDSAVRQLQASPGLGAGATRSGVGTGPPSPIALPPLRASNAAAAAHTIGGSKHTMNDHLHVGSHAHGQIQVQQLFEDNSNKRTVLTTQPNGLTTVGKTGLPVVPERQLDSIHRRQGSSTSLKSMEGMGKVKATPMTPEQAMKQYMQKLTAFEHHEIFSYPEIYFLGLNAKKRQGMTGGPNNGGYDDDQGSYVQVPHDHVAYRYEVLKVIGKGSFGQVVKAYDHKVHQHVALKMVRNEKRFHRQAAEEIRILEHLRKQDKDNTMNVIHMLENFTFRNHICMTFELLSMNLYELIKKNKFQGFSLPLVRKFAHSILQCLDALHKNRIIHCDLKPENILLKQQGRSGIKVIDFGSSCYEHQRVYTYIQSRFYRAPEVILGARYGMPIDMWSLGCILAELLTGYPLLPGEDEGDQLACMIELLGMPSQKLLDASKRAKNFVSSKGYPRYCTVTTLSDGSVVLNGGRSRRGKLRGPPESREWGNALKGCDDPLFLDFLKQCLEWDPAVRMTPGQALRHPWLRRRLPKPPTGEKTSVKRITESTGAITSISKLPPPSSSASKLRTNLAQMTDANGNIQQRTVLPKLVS

Homo sapiens = species on record: Homo sapiens; assay: Inhibition of human PKA assessed as enzyme activity at 1 uM using LCGRTGRRNSI as substrate preincubated for 20 mins followed by [gamma-33P]-ATP addition and measured after 120 mins by radiometric Hot-SpotSM Kinase assay relative to control
[5] = target: T3, cGMP-dependent protein kinase 2 (Homo sapiens) (UniProt Q13237); assay: Inhibition of human PKG2 assessed as enzyme activity at 1 uM using LRRASLG as substrate preincubated for 20 mins followed by [gamma-33P]-ATP addition and measured after 120 mins by radiometric Hot-SpotSM Kinase assay relative to control
T3 sequence (whole entry): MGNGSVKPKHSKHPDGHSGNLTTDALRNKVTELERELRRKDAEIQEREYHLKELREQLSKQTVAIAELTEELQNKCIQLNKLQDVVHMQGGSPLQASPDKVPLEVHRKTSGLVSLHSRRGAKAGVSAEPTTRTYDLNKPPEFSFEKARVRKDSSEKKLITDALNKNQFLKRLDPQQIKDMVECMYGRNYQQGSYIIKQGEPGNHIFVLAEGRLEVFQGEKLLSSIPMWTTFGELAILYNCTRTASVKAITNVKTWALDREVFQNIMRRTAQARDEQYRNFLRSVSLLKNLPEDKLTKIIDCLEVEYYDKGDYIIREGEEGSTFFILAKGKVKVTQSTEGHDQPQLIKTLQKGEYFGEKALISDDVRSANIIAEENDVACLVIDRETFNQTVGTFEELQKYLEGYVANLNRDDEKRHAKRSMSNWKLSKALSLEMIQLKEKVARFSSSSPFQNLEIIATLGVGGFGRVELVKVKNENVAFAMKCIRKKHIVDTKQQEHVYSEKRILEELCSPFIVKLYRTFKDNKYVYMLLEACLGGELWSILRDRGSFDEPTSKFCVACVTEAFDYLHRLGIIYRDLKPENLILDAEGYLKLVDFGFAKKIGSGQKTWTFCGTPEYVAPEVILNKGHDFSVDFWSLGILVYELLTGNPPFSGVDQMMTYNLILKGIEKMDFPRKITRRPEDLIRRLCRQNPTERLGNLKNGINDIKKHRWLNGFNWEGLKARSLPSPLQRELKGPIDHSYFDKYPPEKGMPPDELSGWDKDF

[6] = target: Serine/threonine-protein kinase N1 (Homo sapiens) (UniProt Q16512); assay: Inhibition of human PKN1 assessed as enzyme activity at 1 uM using KKLNRTLSVA as substrate preincubated for 20 mins followed by [gamma-33P]-ATP addition and measured after 120 mins by radiometric Hot-SpotSM Kinase assay relative to control
Chain of Serine/threonine-protein kinase N1 (Homo sapiens) (Q16512 2-942 limits assumed): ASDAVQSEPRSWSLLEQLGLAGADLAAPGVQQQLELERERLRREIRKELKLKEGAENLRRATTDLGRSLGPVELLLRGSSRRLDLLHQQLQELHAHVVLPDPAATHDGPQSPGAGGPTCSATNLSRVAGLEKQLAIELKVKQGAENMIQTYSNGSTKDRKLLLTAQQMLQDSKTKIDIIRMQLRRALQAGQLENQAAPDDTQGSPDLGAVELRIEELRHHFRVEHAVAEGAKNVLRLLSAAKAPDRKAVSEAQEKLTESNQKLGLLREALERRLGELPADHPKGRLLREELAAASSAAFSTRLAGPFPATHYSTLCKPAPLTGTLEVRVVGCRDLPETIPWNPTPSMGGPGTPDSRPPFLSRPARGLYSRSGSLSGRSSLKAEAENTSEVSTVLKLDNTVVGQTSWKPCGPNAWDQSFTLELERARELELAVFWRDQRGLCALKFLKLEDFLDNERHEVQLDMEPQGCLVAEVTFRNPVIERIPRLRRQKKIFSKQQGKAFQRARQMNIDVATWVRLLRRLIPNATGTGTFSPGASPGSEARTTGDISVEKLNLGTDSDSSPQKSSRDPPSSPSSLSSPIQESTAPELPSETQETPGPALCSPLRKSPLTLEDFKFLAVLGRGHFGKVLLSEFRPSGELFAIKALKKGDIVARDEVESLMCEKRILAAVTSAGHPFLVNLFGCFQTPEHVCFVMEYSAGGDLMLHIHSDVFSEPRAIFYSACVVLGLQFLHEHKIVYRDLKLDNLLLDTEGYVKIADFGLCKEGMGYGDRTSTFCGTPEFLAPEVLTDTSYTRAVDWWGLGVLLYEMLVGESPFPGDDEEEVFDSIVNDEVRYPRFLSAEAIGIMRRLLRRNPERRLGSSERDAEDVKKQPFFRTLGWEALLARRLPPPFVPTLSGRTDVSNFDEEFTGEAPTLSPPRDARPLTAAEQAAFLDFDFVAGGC

Chain of Tyrosine-protein kinase ABL1 (Homo sapiens) (P00519 whole entry): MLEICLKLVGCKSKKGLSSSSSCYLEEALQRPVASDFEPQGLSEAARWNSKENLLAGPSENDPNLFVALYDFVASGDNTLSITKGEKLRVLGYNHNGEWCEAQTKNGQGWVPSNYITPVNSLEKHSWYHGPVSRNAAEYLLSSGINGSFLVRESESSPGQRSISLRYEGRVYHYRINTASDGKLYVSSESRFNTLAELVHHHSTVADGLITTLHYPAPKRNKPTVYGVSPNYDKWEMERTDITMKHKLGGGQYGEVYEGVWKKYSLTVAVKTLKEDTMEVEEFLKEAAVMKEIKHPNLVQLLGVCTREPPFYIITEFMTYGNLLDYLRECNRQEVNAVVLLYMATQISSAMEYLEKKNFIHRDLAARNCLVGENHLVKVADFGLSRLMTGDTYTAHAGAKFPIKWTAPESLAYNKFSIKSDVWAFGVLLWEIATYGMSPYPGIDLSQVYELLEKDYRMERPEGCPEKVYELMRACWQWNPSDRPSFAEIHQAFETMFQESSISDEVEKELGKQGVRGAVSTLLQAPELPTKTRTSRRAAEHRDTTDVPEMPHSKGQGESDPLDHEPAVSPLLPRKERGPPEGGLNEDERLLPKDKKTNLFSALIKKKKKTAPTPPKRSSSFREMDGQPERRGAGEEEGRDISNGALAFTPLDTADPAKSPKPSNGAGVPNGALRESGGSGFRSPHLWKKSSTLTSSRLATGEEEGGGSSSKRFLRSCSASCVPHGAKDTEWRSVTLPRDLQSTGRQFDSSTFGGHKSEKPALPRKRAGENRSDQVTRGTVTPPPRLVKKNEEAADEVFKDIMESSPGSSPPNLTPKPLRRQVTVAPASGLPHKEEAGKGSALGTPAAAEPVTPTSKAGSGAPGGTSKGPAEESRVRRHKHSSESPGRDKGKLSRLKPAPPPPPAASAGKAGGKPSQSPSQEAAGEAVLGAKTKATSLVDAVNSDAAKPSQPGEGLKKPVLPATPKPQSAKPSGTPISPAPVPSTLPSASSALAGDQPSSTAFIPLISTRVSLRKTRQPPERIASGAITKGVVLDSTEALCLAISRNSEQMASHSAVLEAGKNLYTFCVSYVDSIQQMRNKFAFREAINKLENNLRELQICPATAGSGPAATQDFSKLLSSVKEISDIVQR
Chain of RAF proto-oncogene serine/threonine-protein kinase (Homo sapiens) (P04049 whole entry): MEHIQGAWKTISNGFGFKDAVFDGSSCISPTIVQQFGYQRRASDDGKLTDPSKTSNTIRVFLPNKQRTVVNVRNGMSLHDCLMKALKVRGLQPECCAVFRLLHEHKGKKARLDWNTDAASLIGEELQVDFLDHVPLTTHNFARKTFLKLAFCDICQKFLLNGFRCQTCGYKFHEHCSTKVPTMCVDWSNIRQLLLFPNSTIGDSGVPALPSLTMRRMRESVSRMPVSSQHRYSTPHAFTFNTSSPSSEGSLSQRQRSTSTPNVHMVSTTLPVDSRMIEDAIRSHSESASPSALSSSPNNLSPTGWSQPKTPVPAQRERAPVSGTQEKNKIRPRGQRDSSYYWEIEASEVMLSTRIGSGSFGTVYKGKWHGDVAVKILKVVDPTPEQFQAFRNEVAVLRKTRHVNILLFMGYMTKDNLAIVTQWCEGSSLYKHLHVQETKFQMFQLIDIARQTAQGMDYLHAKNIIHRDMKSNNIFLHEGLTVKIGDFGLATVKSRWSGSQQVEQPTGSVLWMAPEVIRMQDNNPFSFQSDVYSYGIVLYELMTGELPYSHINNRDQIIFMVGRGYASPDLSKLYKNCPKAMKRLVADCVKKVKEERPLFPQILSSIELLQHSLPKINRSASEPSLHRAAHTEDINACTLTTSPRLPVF

SMILES	Activity [1] [%]	Activity [2] [%]	Activity [3] [%]	Activity [4] [%]	Activity (Homo sapiens) [%]	Activity [5] [%]	Activity [6] [%]
C[C@H](Nc1ncnc2nc[nH]c12)c1cc2cccc(Cl)c2c(=O)n1-c1ccccc1	110	97.2	93.5	99	95.5	99.8	84
CC[C@H](Nc1ncnc2[nH]cnc12)c1nc2cccc(F)c2c(=O)n1-c1ccccc1	106	99.5	95.3	99	102	99.7	90.5
CC(C)Oc1ccc(-c2nn([C@@H](C)c3oc4ccc(F)cc4c(=O)c3-c3cccc(F)c3)c3ncnc(N)c23)cc1F [UMBRALISIB]	104	95.1	93.1	99.2	91.4	102	92.8
